# Laboratory results: ChEMBL document CHEMBL3045711, “Neonicotinoid insecticides: oxidative stress in planta and metallo-oxidase inhibition” (J Agric Food Chem, 2011)
# Experiments:
# Aldehyde oxidase 1 = molecular target: T1, Aldehyde oxidase 1 (Oryctolagus cuniculus, UniProt P80456); type: ADME, tissue-based, Liver, Cytosol
# T1 sequence (P80456 whole entry): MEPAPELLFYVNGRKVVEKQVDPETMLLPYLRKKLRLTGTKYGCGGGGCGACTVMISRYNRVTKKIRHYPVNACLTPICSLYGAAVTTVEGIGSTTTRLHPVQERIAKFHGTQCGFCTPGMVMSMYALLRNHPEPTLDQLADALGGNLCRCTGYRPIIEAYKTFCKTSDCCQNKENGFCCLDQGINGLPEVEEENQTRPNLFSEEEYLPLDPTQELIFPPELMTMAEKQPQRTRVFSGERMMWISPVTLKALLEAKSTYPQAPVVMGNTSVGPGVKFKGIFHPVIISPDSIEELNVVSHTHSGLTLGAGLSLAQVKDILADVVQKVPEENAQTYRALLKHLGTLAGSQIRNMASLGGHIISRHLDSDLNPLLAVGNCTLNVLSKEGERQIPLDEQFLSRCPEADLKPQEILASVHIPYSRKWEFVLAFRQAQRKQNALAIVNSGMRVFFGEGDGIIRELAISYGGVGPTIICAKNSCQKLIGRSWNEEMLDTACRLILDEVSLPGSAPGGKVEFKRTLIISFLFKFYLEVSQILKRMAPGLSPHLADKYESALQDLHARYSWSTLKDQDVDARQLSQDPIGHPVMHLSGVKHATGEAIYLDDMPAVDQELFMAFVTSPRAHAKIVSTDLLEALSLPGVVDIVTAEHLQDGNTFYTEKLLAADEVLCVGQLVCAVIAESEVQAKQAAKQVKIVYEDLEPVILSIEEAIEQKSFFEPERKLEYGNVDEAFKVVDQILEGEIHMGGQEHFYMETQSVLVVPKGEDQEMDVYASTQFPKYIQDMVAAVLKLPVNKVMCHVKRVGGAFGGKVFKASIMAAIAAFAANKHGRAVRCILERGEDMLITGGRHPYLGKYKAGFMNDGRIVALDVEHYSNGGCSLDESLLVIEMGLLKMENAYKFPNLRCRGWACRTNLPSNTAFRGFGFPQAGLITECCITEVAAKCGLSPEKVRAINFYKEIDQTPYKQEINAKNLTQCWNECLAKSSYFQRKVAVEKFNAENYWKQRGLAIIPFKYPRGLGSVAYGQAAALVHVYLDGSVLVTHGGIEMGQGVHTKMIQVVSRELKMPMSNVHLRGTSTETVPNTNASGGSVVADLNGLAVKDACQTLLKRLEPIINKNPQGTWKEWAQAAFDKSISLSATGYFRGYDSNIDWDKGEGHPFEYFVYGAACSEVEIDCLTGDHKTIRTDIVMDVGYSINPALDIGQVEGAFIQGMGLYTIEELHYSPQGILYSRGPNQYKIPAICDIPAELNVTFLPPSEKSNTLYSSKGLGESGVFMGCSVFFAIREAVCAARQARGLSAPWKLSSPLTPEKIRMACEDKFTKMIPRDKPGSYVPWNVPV
# Description: Inhibition of Oryctolagus cuniculus (rabbit) AOX in liver cytosol
# Tyrosinase = molecular target: T2, Tyrosinase (Agaricus bisporus, UniProt O42713)
# T2 sequence (O42713 whole entry): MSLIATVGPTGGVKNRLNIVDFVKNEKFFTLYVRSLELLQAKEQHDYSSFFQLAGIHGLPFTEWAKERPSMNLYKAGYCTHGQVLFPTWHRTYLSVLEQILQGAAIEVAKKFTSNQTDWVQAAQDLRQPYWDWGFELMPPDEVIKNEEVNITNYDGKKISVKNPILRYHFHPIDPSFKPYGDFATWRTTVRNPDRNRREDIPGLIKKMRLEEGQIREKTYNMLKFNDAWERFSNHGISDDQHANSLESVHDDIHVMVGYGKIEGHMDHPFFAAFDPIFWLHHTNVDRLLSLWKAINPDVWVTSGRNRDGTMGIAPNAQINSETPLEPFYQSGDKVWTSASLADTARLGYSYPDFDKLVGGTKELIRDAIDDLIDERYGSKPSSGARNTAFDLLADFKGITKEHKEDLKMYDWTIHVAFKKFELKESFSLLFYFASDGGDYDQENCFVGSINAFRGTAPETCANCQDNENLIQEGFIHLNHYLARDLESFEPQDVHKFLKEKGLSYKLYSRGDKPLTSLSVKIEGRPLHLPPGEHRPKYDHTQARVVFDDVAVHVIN
# Description: Inhibition of Agaricus bisporus (mushroom) tyrosinase
# Catalase = molecular target: T3, Catalase (Bos taurus, UniProt P00432); type: ADME, tissue-based, Liver
# T3 sequence (P00432 whole entry): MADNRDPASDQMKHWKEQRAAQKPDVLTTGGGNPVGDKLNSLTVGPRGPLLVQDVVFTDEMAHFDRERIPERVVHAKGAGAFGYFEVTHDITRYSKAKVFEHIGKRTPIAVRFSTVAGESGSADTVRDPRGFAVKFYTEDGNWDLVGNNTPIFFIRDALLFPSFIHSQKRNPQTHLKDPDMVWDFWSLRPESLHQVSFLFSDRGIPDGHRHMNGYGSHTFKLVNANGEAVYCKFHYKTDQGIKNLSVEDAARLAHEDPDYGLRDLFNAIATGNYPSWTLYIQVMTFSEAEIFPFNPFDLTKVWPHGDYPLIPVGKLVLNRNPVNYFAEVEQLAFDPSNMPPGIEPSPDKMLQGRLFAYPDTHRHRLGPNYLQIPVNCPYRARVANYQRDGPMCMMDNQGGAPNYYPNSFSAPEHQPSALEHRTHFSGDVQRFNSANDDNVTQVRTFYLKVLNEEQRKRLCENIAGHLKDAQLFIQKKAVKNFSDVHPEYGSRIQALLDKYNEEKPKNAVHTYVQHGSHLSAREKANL
# Description: Inhibition of Bos taurus (bovine) CAT in liver
# Spinacia oleracea = test: Phytotoxicity against Spinacia oleracea (spinach) seedlings assessed as lesions at 100 ppm after 9 days; type: organism-based; details: in vivo, 216 h
Compound,IC50 (Aldehyde oxidase 1),IC50 (Tyrosinase; read-out: IC50),IC50 (Catalase),Activity (Spinacia oleracea),IC50 (Tyrosinase)
CCN(Cc1ccc(Cl)nc1)/C(=C/[N+](=O)[O-])NC,> 1000 µM,> 1000 µM,,,
O=C(O)c1cccnc1S [2-MERCAPTONICOTINIC ACID],> 1000 µM,80 µM,> 1000 µM,,
O=Cc1ccc(O)cc1 [4-HYDROXYBENZALDEHYDE],570 µM,770 µM,,,
O=C(O)c1ccc(Cl)cc1O,> 1000 µM,520 µM,> 1000 µM,,
O=C(O)c1ccccc1 [BENZOIC ACID],> 1000 µM,270 µM,> 1000 µM,,
O=Cc1ccc(Cl)nc1 [6-CHLORONICOTINALDEHYDE],720 µM,770 µM,,,
Oc1ncnc2[nH]ncc12 [ALLOPURINOL],> 1000 µM,> 1000 µM,,,
O=Cc1cnc(Cl)s1,360 µM,64 µM,,,
O=Cc1cncs1 [THIAZOLE-5-CARBALDEHYDE],890 µM,7 µM,,,
O=Cc1cccnc1Cl [2-CHLORONICOTINALDEHYDE],350 µM,> 1000 µM,,,
C/C(=N\C#N)N(C)Cc1ccc(Cl)nc1,> 1000 µM,1740 µM,,Toxic,
O=C(O)c1ccc(S)nc1 [6-MERCAPTONICOTINIC ACID],> 1000 µM,42 µM,> 1000 µM,,
O=CC1CCOC1 (stereo not drawn) [TETRAHYDROFURAN-3-CARBALDEHYDE],360 µM,> 1000 µM,,,
N=C(N)NN [PIMAGEDINE],,,500 µM,,
O=Cc1cccnc1 [NICOTINALDEHYDE],600 µM,28 µM,,,
O=Cc1ccoc1 [FURAN-3-CARBALDEHYDE],260 µM,15 µM,,,
O=C(O)c1ccc(Cl)nc1 [6-CHLORONICOTINIC ACID],> 1000 µM,> 1000 µM,> 1000 µM,,
O=Cc1ccco1 [FURFURAL],700 µM,43 µM,,,
CN/C(=N/CC1CCOC1)N[N+](=O)[O-] (stereo not drawn) [DINOTEFURAN],> 1000 µM,> 1000 µM,,,
O=C(O)c1cccnc1 [NIACIN],,> 1000 µM,,,
CN1COCN(Cc2cnc(Cl)s2)/C1=N\[N+](=O)[O-] [THIAMETHOXAM],> 1000 µM,> 1000 µM,,,
O=C(O)C1CCOC1 (stereo not drawn),> 1000 µM,> 1000 µM,> 1000 µM,,
O=Cc1ccccc1 [BENZALDEHYDE],660 µM,,,,
O=C(c1ccc(OCCN2CCCCC2)cc1)c1c(-c2ccc(O)cc2)sc2cc(O)ccc12 [RALOXIFENE],1530 µM,,,,ND(Insoluble)
CN/C(=N\[N+](=O)[O-])NCc1cnc(Cl)s1 [CLOTHIANIDINE],> 1000 µM,> 1000 µM,,Toxic,
O=C(O)c1cnc(Cl)s1,> 1000 µM,> 1000 µM,> 1000 µM,,
